From US20250084074A1, “SUBSTITUTED HETEROCYCLES AS HSET INHIBITORS” (MERCK PATENT GMBH, priority 2022, published 2025)
pIC50: −log10 of the molar value. Where a name gives a salt, the structure may show the parent alone.

The molecules below were run against HSET full length protein (Homo sapiens (Human), UniProt Q9BW19) (assay: HSET ADP-Glo Assay S - 3 μM ATP). Settings: 5 nM HSET, 70 μg/mL microtubule, 80 min at rt, read-out: COMBINED HSET ADP GLO IC50.
Format: biochemical
Experimental: Example 281: Testing compounds of the present invention for inhibitory activities against HSET—HSET ADP-Glo Assay S—3 μM ATP
Reagents: (+4° C. Storage) • Paclitaxel Prod.No.TXD.01 2 mM in DMSO (from Universal Biologicals Cambridge). • Tubulin Protein (Pre-formed Microtubules): Bovine Brain Prod.No.MT001-XL Lot.025 10 mg/mL (from Universal Biologicals Cambridge).
Reagents: (−80° C. Storage) • MT001-XL—Tubulin Protein (Pre-formed Microtubules): Bovine Brain—reconstituted in buffer—15 mM PIPES pH7, 1 mM MgCl2, 20 μM paclitaxel (aliquots at 10 mg/mL) from Universal Biologicals Cambridge. • HSET full length protein—Current batch is FL HSET Prep1 (SEQ-000096_002-01_01) • Buffer is 20 mM Hepes pH 7.5, 200 mM NaCl, 2 mM TCEP, 5% glycerol (5 μL aliquots at 10.2 μM)
Reagents: (−20° C. Storage) • ADP-Glo Kinase Assay kit (Promega Prod.No.V9102) 10,000 assay points • ADP-Glo reagent (50 mL), Kinase Detection Reagent (100 mL), and Ultrapure ATP (10 mM) aliquoted
Buffer Stocks (filtered and stored at rt for up to 1 month) • HEPES acid, 4-(2-Hydroxyethyl)piperazine-1-ethanesulfonic acid MW:238, 238.3 mg/mL=1 M • 7149 mg/30 mL=1M (pH to 6.8 with 5 M NaOH) • PIPES, 1,4-Piperazinediethanesulfonic acid MW: 302.4, 30.24 mg/mL=100 mM; 907.2 mg/30 mL=100 mM (pH to 7 with 5 M NaOH, white cloudy suspension until the pH changes) • EGTA, Ethylene glycol-bis(2-aminoethylether)-N,N,N′,N′-tetraacetic acid MW: 380.35, 38.035 mg/mL=100 mM • 1901.75 mg/50 mL=100 mM (pH to ˜7 with 5 M NaOH)—takes a long time to get into solution and for pH to stabilize • Triton-X-100, MW: 625, 62.5 mg/mL=100 mM (6.25% w/v) (viscous, pipette Triton X-100 with a Gilson using a trimmed pipette tip)
ECHO Protocol • Create an ECHO intermediate plate by adding 24.5 μL DMSO to columns 1 & 2, and 40 μL DMSO to columns 23 & 24 of an ECHO 384PP plate • Add 100 nL of compound/DMSO per well in 384-well Proxi-Plate Plus (white) —Perkin Elmer Cat #6008289 using ECHO dose response protocol 100 nL normal to proxi_8pt_200 uM.
Assay buffer (Keep on ice): HEPES pH 6.8, MgCl2, EGTA, Triton X-100, DTT, HPLC H2O Microtubule Working Solution (3.2): • 1 ml PM buffer: PIPES pH 7.0, MgCl2, HPLC H2O, Paclitaxel, mix well, store at rt • Then add 26.4 μL of 10 mg/ml microtubules to 724 μL of the above PM buffer to make 750 μL of microtubule working solution @350 μg/mL microtubules (store at rt)
Stock HSET enzyme solution (3.1)—keep on ice • Add 1.33 μL 10.2 μM HSET Prepi (SEQ-000096_002-01_01) to 1358 μL assay buffer to make a 10 nM stock for a 5 nM final assay concentration (1/1020 dilution).
HSET/Microtubule working solution (3.3) • Mix solutions 3.1 and 3.2 in the ratio of 2.5:1 (1214.3 μL 3.1+485.7 μL 3.2) keep at rt for 15 min • 3.2 is diluted 3.5-fold, 3.1 is diluted 1.4-fold BLANK solution is 357 μL 2XAB+143 μL microtubule working solution 3.2. (Same proportions as HSET/Microtubule working solution (3.3))
ATP Working solution is 1 μL 10 mM UltraPure ATP (Promega kit)+999 μL ddH20 gives 10 μM ATP for a 3 μM final assay concentration, stored on ice.
Assay procedure in PROXIPLATE 384 PLUS WHITE (Perkin Elmer) plates (Remove 2.4 mL ADP Glo and 4.5 mL Kinase detection reagent from freezer to warm up to rt) • Add 3.5 μL BLANK solution to assay plate (column 12) • Add 3.5 μL HSET/Microtubule solution (3.3) (columns 1-11 & 13-24) • Centrifuge at 1000 rpm for 1 min • (pre-incubate enzyme and compound for 10 min)
Add 1.5 μL of 10 μM ATP to start reaction gives a final [HSET] of 5 nM, [ATP] of 3 μM and [microtubule] of 70 μg/mL, centrifuge at 1000 rpm for 1 min and incubated at rt for 80 min.
After the 80-minute incubation, stop reaction by adding 5 μL ADP-Glo reagent to all wells. Centrifuge for 1 min at 1000 rpm, leave for 40 min at rt.
In the dark/away from direct light, add 10 μL Kinase Detection Reagent (KDR) to all wells, Seal plate with a Topseal (Perkin Elmer Cat #6050185) and centrifuge as above, leave for 40 min at rt covered in foil. […]

Sequence of HSET full length protein (Q9BW19 whole entry): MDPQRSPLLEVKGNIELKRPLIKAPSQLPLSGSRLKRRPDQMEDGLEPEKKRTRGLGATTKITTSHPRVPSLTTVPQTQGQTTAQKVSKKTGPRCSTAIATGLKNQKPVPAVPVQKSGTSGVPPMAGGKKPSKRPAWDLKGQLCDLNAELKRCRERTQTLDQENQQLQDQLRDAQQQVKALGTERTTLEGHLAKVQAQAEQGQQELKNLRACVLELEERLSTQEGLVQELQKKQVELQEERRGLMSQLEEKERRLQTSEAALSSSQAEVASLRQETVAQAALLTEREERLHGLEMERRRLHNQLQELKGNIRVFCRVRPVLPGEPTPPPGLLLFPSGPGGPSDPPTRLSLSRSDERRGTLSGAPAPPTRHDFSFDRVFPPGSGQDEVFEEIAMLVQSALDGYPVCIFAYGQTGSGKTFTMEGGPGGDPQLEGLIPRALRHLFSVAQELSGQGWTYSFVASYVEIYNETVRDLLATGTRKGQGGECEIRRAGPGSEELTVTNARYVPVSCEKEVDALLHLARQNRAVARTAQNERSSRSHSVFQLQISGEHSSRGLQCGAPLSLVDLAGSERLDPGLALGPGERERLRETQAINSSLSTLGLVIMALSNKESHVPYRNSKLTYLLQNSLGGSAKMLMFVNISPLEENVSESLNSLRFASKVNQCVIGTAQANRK

SMILES | pIC50
COC(=O)c1sc(NC(=O)CCNc2nccc3ccc(-c4noc(C)n4)cc23)nc1C [Example 46, Methyl 4-methyl-2-[3-[[7-(5-methyl-1,2,4-oxadiazol-3-yl)-1-isoquinolyl]amino]propanoylamino]thiazole-5-carboxylate] | 7.43
Cc1nc(-c2ccc3ncnc(NCCC(=O)Nc4nc(C)c(C(C)(C)C)s4)c3c2)no1 [Example 47, N-(5-tert-butyl-4-methyl-thiazol-2-yl)-3-[[6-(5-methyl-1,2,4-oxadiazol-3-yl)quinazolin-4-yl]amino]propanamide formate] | 6.83
Cc1nc(-c2ccc3ncnc(N[C@H]4C[C@@H](C(=O)Nc5nc(C)c(C(=O)OC(C)(C)C)s5)C4)c3c2)no1 [Example 48, tert-Butyl 4-methyl-2-((1 s,3s)-3-((6-(5-methyl-1,2,4-oxadiazol-3-yl)quinazolin-4-yl)amino)cyclobutane-1-carboxamido)thiazole-5-carboxylate] | 7.17
Cc1nc(-c2ccc3ncnc(N[C@H]4C[C@@H](C(=O)N(C)c5nc(C)c(C(=O)OC(C)(C)C)s5)C4)c3c2)no1 [Example 49, tert-Butyl 4-methyl-2-((1 s,3s)-N-methyl-3-((6-(5-methyl-1,2,4-oxadiazol-3-yl)quinazolin-4-yl)amino)cyclobutane-1-carboxamido)thiazole-5-carboxylate formate] | 7.23
Cc1nc(-c2ccc3ccnc(NCCC(=O)Nc4nc(C)c(C5(C(F)(F)F)CC5)s4)c3c2)no1 [Example 52] | 6.82
Cc1nc(-c2ccc3ccnc(NCCC(=O)Nc4ncc(C#N)s4)c3c2)no1 [Example 55] | 5.95
Cc1nc(-c2ccc3ccnc(NCCC(=O)Nc4cc(C(F)(F)F)n(C)n4)c3c2)no1 [Example 56, 3-((7-(5-methyl-1,2,4-oxadiazol-3-yl)isoquinolin-1-yl)amino)-N-(1-methyl-5-(trifluoromethyl)-1 H-pyrazol-3-yl)propenamide] | 5.90
CCCCCc1cc(NC(=O)CCNc2nccc3ccc(-c4noc(C)n4)cc23)nn1C [Example 57, 3-((7-(5-methyl-1,2,4-oxadiazol-3-yl)isoquinolin-1-yl)amino)-N-(1-methyl-5-pentyl-1 H-pyrazol-3-yl)propanamide] | 6.78
Cc1nnn(-c2cccc(C(=O)NCCC(=O)Nc3nc(C)c(C(C)(C)C)s3)c2)n1 [Example 59, N-(3-((5-(tert-butyl)-4-methylthiazol-2-yl)amino)-3-oxopropyl)-3-(5-methyl-2H-tetrazol-2-yl)benzamide] | 6.56
CNCCC[C@@H](CC(=O)Nc1nc(C)c(C(C)(C)C)s1)NC(=O)c1cccc(-n2nnc(C)n2)c1 [Example 60, (S)-N-(1-((5-(tert-butyl)-4-methylthiazol-2-yl)amino)-6-(methylamino)-1-oxohexan-3-yl)-3-(5-methyl-2H-tetrazol-2-yl)benzamide] | 7.27
CCCOC(=O)c1sc(C(=O)NCCNc2nccc3ccc(-c4noc(C)n4)cc23)nc1C [Example 70, Propyl 4-methyl-2-((2-((7-(5-methyl-1,2,4-oxadiazol-3-yl)isoquinolin-1-yl)amino)ethyl)carbamoyl)thiazole-5-carboxylate] | 7.96
CCOC(=O)c1cc(C(=O)NCCNc2nccc3ccc(-c4noc(C)n4)cc23)nn1C [Example 71, Ethyl 1-methyl-3-((2-((7-(5-methyl-1,2,4-oxadiazol-3-yl)isoquinolin-1-yl)amino)ethyl)carbamoyl)-1 H-pyrazole-5-carboxylate] | 4.96
CCCOC(=O)c1cc(C(=O)NCCNc2nccc3ccc(-c4noc(C)n4)cc23)nn1C [Example 72, Propyl 1-methyl-3-((2-((7-(5-methyl-1,2,4-oxadiazol-3-yl)isoquinolin-1-yl)amino)ethyl)carbamoyl)-1 H-pyrazole-5-carboxylate] | 5.37

Results, then the molecule that gave them:

pIC50 | SMILES
8.52 | CCCOC(=O)c1sc(NC(=O)CCNc2nccc3ccc(-c4noc(C)n4)cc23)nc1C [Example 54, Propyl 4-methyl-2-(3-((7-(5-methyl-1,2,4-oxadiazol-3-yl)isoquinolin-1-yl)amino)propanamido)thiazole-5-carboxylate]
6.09 | CCOC(=O)c1cnc(NC(=O)CCNC(=O)c2cccc(-c3noc(C)n3)c2)s1 [Example 61, Ethyl 2-(3-(3-(5-methyl-1,2,4-oxadiazol-3-yl)benzamido)propanamido)-thiazole-5-carboxylate]
5.92 | COC(=O)c1sc(NC(=O)CCNC(=O)c2cccc(-c3noc(C)n3)c2)nc1C [Example 62, Methyl 4-methyl-2-(3-(3-(5-methyl-1,2,4-oxadiazol-3-yl)benzamido)propanamido)thiazole-5-carboxylate]
7.96 | CCCOC(=O)c1sc(NC(=O)CCNC(=O)c2cccc(-c3noc(C)n3)c2)nc1C [Example 63, Propyl 4-methyl-2-(3-(3-(5-methyl-1,2,4-oxadiazol-3-yl)benzamido)propanamido)thiazole-5-carboxylate]
6.46 | CCCCc1sc(NC(=O)CCNC(=O)c2cccc(-c3noc(C)n3)c2)nc1C [Example 64, N-(3-((5-butyl-4-methylthiazol-2-yl)amino)-3-oxopropyl)-3-(5-methyl-1,2,4-oxadiazol-3-yl)benzamide]
5.39 | CCOC(=O)c1sc(NC(=O)CC(C)(C)NC(=O)c2cccc(-c3noc(C)n3)c2)nc1C [Example 65, Ethyl 4-methyl-2-(3-methyl-3-(3-(5-methyl-1,2,4-oxadiazol-3-yl)benzamido)butanamido)thiazole-5-carboxylate]
7.40 | Cc1nc(-c2cccc(C(=O)NCCC(=O)Nc3nc(C)c(C(=O)OC(C)C)s3)c2)no1 [Example 66, Isopropyl 4-methyl-2-(3-(3-(5-methyl-1,2,4-oxadiazol-3-yl)benzamido)propanamido)thiazole-5-carboxylate]
6.38 | COCCOC(=O)c1sc(NC(=O)CCNC(=O)c2cccc(-c3noc(C)n3)c2)nc1C [Example 67, 2-Methoxyethyl 4-methyl-2-(3-(3-(5-methyl-1,2,4-oxadiazol-3-yl)benzamido)propanamido)thiazole-5-carboxylate]
7.48 | Cc1nc(-c2cccc(C(=O)NCCC(=O)Nc3nc(C)c(C(=O)OCC(C)C)s3)c2)no1 [Example 68, Isobutyl 4-methyl-2-(3-(3-(5-methyl-1,2,4-oxadiazol-3-yl)benzamido)propanamido)thiazole-5-carboxylate]
7.30 | COCCCCOC(=O)c1sc(NC(=O)CCNC(=O)c2cccc(-c3noc(C)n3)c2)nc1C [Example 69, 4-Methoxybutyl 4-methyl-2-(3-(3-(5-methyl-1,2,4-oxadiazol-3-yl)benzamido)propanamido)thiazole-5-carboxylate]
